{"source": "patent US8466191B2", "about": "“Pyrroline derivatives against cell releasing tumor necrosis factor, preparation methods and uses thereof” (priority 2006, dated 2013)", "data": [{"tested_on": "release of TNFα in peripheral blood mononuclear cells (PBMCs) stimulated by lipopolysaccharide (LPS)", "experiment": "Inhibition of the release of TNFα in peripheral blood mononuclear cells (PBMCs) stimulated by lipopolysaccharide (LPS), ELISA", "assay_type": "cell-based, human", "details": "3 μM compound; PBMCs 1×10^6 cells/mL, 1 hour preincubation, LPS 0.1 μg/mL, 20 hours incubation, TNFα in supernatant by ELISA", "experimental": "(§1) Pharmacological Research: Effects on the release of TNFα in peripheral blood mononuclear cells (PBMCs) stimulated by lipopolysaccharide (LPS) by compounds of the invention\n(§2) Release of cytokine TNFα by PBMCs in the peripheral blood stimulated by lipid polysaccharide (LPS) was studied in vitro.\n(§3) PBMCs collected from blood of at least three volunteers were pretreated with heparin by a gradient separation method, and washed three times with a 1640 culture medium (10% calf serum, 2 mM L-glutamine, […] mercaptoethanol, 50 μg/mL streptomycin, and 50 U/mL penicillin). The obtained PBMCs were then placed into a 24-well cell culture plate and the concentration was adjusted to 1×10^6 cells/mL with 1640 culture medium. The compounds to be tested were dissolved in dimethylsulfoxide to obtain a solution having a required concentration. The solution was added to the above-mentioned cell culture medium and cultured in an incubator (5% CO2, 90% humidity) for 1 hour. Then, LPS (Sigma) was added until the concentration reached 0.1 μg/mL (except for the control).\n(§4) After 20 hours incubation, the content of TNFα in the supernatant of the PBMC culture medium was assayed using an ELISA kit (America Genzyme Co) by a standard method. The TNFα inhibition rate was calculated using values measured in the control well (not treated) and the test wells (treated with the compound to be tested). The concentration of compounds giving a 50% TNFα inhibition (IC50 value) was calculated using nonlinear regression analysis. Each concentration was determined twice and an average value was reported.", "units": {"Inhibition Rate (%)": "%"}, "values": [{"smiles": "COC(=O)CC(c1ccc(OC)c(OC)c1)N1C(=O)c2cscc2C1=O", "note": "(centres unmarked) [Example 1, methyl 3-(3,4-dimethoxy-phenyl)-3-(4,6-dioxo-4H-thiophene[3,4-c]pyrrole-5(6H)-yl)propionate]", "Inhibition Rate (%)": 87.6}, {"smiles": "COC(=O)CCN1C(=O)c2cscc2C1=O", "note": "[Example 15, methyl 3-(4,6-Dioxo-4H-thiophene[3,4-c]pyrrole-5(6H)-yl)propionate]", "Inhibition Rate (%)": 40.9}, {"smiles": "COC(=O)CCCN1C(=O)c2cscc2C1=O", "note": "[Example 16, methyl 4-(4,6-Dioxo-4H-thiophene[3,4-c]pyrrole-5(6H)-yl)butyrate]", "Inhibition Rate (%)": 38.4}, {"smiles": "COC(=O)[C@H](c1ccccc1)N1C(=O)c2cscc2C1=O", "note": "[Example 17, L-methyl 2-(4,6-dioxo-4H-thiophene[3,4-c]pyrrole-5(6H)-yl)-2-phenylacetate]", "Inhibition Rate (%)": 83.5}, {"smiles": "COC(=O)[C@@H](c1ccccc1)N1C(=O)c2cscc2C1=O", "note": "[Example 18, D-methyl 2-(4,6-dioxo-4H-thiophene[3,4-c]pyrrole-5(6H)-yl)-2-phenylacetate]", "Inhibition Rate (%)": 84.1}, {"smiles": "COC(=O)CC(c1ccc(OC)c(OC)c1)N1C(=O)c2csc(N)c2C1=O", "note": "(centres unmarked) [Example 23, methyl 3-(3,4-Dimethoxy-phenyl)-3-(1-amino-4,6-dioxo-4H-thiophene[3,4-c]pyrrole-5(6H)-yl)propionate]", "Inhibition Rate (%)": 95.4}, {"smiles": "CCOc1ccc(C(CC(=O)OC)N2C(=O)c3csc(N)c3C2=O)cc1OC", "note": "(centres unmarked) [Example 26, methyl 3-(3-Methoxy-4-ethoxy-phenyl)-3-(1-amino-4,6-dioxo-4H-thiophene[3,4-c]pyrrole-5(6H)-yl)propionate]", "Inhibition Rate (%)": 93.6}, {"smiles": "COC(=O)[C@H](c1ccccc1)N1C(=O)c2csc(N)c2C1=O", "note": "[Example 29, L-methyl 2-(1-amino-4,6-dioxo-4H-thiophene[3,4-c]pyrrole-5(6H)-yl)-2-phenylacetate]", "Inhibition Rate (%)": 87.6}, {"smiles": "COC(=O)[C@@H](c1ccccc1)N1C(=O)c2csc(N)c2C1=O", "note": "[Example 30, D-methyl 2-(1-amino-4,6-dioxo-4H-thiophene[3,4-c]pyrrole-5(6H)-yl)-2-phenylacetate]", "Inhibition Rate (%)": 91.4}, {"smiles": "COC(=O)CC(c1ccc(OC)c(OC2CCCC2)c1)N1C(=O)c2csc(NC(C)=O)c2C1=O", "note": "(centres unmarked) [Example 31, methyl 3-(3-Cyclopentyloxy-4-methoxy-phenyl)-3-(1-acetylamino-4,6-dioxo-4H-thiophene[3,4-c]pyrrole-5(6H)-yl)propionate]", "Inhibition Rate (%)": 93.6}, {"smiles": "CCOc1ccc(C(CC#N)N2C(=O)c3csc(N)c3C2=O)cc1OC", "note": "(centres unmarked) [Example 38, 3-(3-Methoxy-4-ethoxy-phenyl)-3-(1-amino-4,6-dioxo-4H-thiophene[3,4-c]pyrrole-5(6H)-yl)propionitrile]", "Inhibition Rate (%)": 94.9}, {"smiles": "COc1ccc(C(CC#N)N2C(=O)c3csc(N)c3C2=O)cc1OC", "note": "(centres unmarked) [Example 39, 3-(3,4-dimethoxy-phenyl)-3-(1-amino-4,6-dioxo-4H-thiophene[3,4-c]pyrrole-5(6H)-yl)propionitrile]", "Inhibition Rate (%)": 93.4}, {"smiles": "COc1cc(C(CC#N)N2C(=O)c3csc(N)c3C2=O)ccc1OCc1ccccc1", "note": "(centres unmarked) [Example 40, 3-(3-Methoxy-4-benzyloxyphenyl)-3-(1-amino-4,6-dioxo-4H-thiophene[3,4-c]pyrrole-5(6H)-yl)propionitrile]", "Inhibition Rate (%)": 83.6}, {"smiles": "CCOc1cc(C(CC#N)N2C(=O)c3csc(N)c3C2=O)ccc1OC", "note": "(centres unmarked) [Example 41, 3-(3-Ethoxy-4-methoxy-phenyl)-3-(1-amino-4,6-dioxo-4H-thiophene[3,4-c]pyrrole-5(6H)-yl)propionitrile]", "Inhibition Rate (%)": 91.2}, {"smiles": "COc1ccc(C(CC#N)N2C(=O)c3csc(N)c3C2=O)cc1OC1CCCC1", "note": "(centres unmarked) [Example 42, 3-(3-Cyclopentyloxy-4-methoxy-phenyl)-3-(1-amino-4,6-dioxo-4H-thiophene[3,4-c]pyrrole-5(6H)-yl)propionitrile]", "Inhibition Rate (%)": 94.8}, {"smiles": "COc1cc(C(CCN(C)C)N2C(=O)c3cscc3C2=O)ccc1OCc1ccccc1", "note": "(centres unmarked) [Example 54, 5-(1-(3-Methoxy-4-benzyloxyphenyl)-3-dimethylamino-propyl)-5H-thiophene[3,4-c]pyrrole-4,6-dione]", "Inhibition Rate (%)": 41.4}, {"smiles": "CCN(CC)CCC(c1ccc(OCc2ccccc2)c(OC)c1)N1C(=O)c2cscc2C1=O", "note": "(centres unmarked) [Example 55, 5-(1-(3-Methoxy-4-benzyloxyphenyl)-3-diethylamino-propyl)-5H-thiophene[3,4-c]pyrrole-4,6-dione]", "Inhibition Rate (%)": 50.2}, {"smiles": "CCOc1ccc(C(CC(=O)O)N2C(=O)c3cscc3C2=O)cc1OC", "note": "(centres unmarked) [Example 58, 3-(3-Methoxy-4-ethoxy-phenyl)-3-(4,6-dioxo-4H-thiophene[3,4-c]pyrrole-5(6H)-yl)propionic acid]", "Inhibition Rate (%)": 20.7}, {"smiles": "CCOc1ccc(C(CC(=O)NO)N2C(=O)c3cscc3C2=O)cc1OC", "note": "(centres unmarked) [Example 59, 3-(3-Methoxy-4-ethoxy-phenyl)-3-(4,6-dioxo-4H-thiophene[3,4-c]pyrrole-5(6H)-yl)-N-hydroxy propionamide]", "Inhibition Rate (%)": 80}]}, {"tested_on": "release of TNFα in peripheral blood mononuclear cells (PBMCs) stimulated by lipopolysaccharide (LPS)", "experiment": "Inhibition of the release of TNFα in peripheral blood mononuclear cells (PBMCs) stimulated by lipopolysaccharide (LPS), ELISA", "assay_type": "cell-based, human", "details": "Homo sapiens, PBMC; 3 μM compound; PBMCs 1×10^6 cells/mL, 1 hour preincubation, LPS 0.1 μg/mL, 20 hours incubation, TNFα in supernatant by ELISA; read-out: Inhibition Rate (%)", "experimental": "as §1, §2, §3, §4", "units": {"inhibition at 3 µM": "%"}, "values": [{"smiles": "O=C1CCC(N2C(=O)c3ccccc3C2=O)C(=O)N1", "note": "(centres unmarked) [Thalidomide, reference compound]", "inhibition at 3 µM": 22}]}]}
